Target: T1, RXRγ (Mus musculus, UniProt P28705)
T1 construct: expressed in transfected cells; host or cells: CV1
T1 sequence (P28705 1-463): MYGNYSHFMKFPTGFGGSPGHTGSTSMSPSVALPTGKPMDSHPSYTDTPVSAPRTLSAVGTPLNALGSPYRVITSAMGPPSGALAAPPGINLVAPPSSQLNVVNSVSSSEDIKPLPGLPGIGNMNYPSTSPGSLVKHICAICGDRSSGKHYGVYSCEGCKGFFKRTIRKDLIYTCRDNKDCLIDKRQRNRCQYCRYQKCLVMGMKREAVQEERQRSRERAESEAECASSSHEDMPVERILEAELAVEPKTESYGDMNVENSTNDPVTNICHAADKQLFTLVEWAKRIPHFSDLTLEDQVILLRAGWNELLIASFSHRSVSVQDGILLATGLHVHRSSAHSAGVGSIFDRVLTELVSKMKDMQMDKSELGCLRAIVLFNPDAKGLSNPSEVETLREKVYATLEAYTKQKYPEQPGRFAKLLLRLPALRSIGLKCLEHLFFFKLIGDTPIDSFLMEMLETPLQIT
Assay: Holoreceptor transactivation assay, RXRγ
Assay type: cell-based
Conditions: CV1 cells; for EC50: 36 hours; for Emax: CV-1, relative to all trans retinoic acid, read-out: Transactivation Assay Efficacy (% of RA activity), RXRγ
Description: A holoreceptor transactivation assay and a ligand binding assay which measure the ability of the compounds of the invention to bind to the several retinoid receptor subtypes, respectively, are described in published PCT Application No. WO W093/11755 (particularly on pages 30-33 and 37-41) published on Jun. 24, 1993, the specification of which is also incorporated herein by reference. A description of the holoreceptor transactivation assay is also provided below.
CV1 cells (5,000 cells/well) were transfected with an RAR reporter plasmid MTV-TREp-LUC (50 ng) along with one of the […] expression vectors (10 ng) in an automated 96-well format by the calcium phosphate procedure of Heyman et al. Cell 68, 397-406. (8). For RXRα and RXR.GAMMA. transactivation assays, an RXR-responsive reporter plasmid CRBPII-tk-LUC (50 ng) along with the appropriate RXRexpression vectors (10 ng) was used substantially as described by Heyman et al. above, and Allegretto et al. J. Biol. Chem. 268, 26625-26633. For RXRβ transactivation assays, an RXR-responsive reporter plasmid CPRE-tk-LUC ([…]) along with RXRβ expression vector ([…]) was used as described in above. These reporters contain DRI elements from human CRBPII and certain DRI elements from promoter, respectively. (see Mangelsdorf et al. The Retinoids: Biology, Chemistry and Medicine, pp 319-349, Raven Press Ltd., New York and Heyman et al., cited above) (1, 8). A β-galactosidase (50 ng) expression vector was used as an internal control in the transfections to normalize for variations in transfection efficiency. The cells were transfected in triplicate for 6 hours, followed by incubation with retinoids for 36 hours, and the extracts were assayed for luciferase and β-galactosidase activities. The detailed experimental procedure for holoreceptor transactivations has been described in Heyman et al. above, and Allegretto et al. cited above. The results obtained in this assay in connection with examplary compounds in accordance with the present invention are expressed in EC50 numbers, as they are also in the chimeric receptor transactivation assay. The Heyman et al. Cell 68, 397-406, Allegretto et al. J. Biol. Chem. 268, 26625-26633, and Mangelsdorf et al. The Retinoids: Biology, Chemistry and Medicine, pp 319-349, Raven Press Ltd., New York, are expressly incorporated herein by reference. The results of ligand binding assay are expressed in Kd numbers. (See Cheng et al. Biochemical Pharmacology Vol. 22 pp 3099-3108, expressly incorporated herein by reference.)

| SMILES | EC50 | Emax |
| --- | --- | --- |
| CC1(C)CCC(C)(C)c2cc(S(=O)(=O)c3ccc(C(=O)O)cc3)ccc21 [Compound 5, 4-(5,6,7,8-tetrahydro-5,5,8,8-tetramethyl-2-naphthylsulfonyl)benzoic acid] | 2.6 µM | 26% |
| Cc1cc2c(cc1Sc1ncc(C(=O)O)s1)C(C)(C)CCC2(C)C [Compound 15, 2-(5,6,7,8-Tetrahydro-3,5,5,8,8-pentamethyl-2-naphthylthio)-5-thiazolecarboxylic acid] | 1.9 µM | 70% |
| Cc1cc2c(cc1[S+]([O-])c1ccc(C(=O)O)cc1)C(C)(C)CCC2(C)C (stereo not shown) [Compound 9, 4-(5,6,7,8-tetrahydro-3,5,5,8,8-pentamethyl-2-naphthylsulfoxy)benzoic acid] | 1.6 µM | 28% |

The next compounds have a lower EC50 than those just listed; values first:

| EC50 | Emax | SMILES |
| --- | --- | --- |
| 0.23 µM | 67% | Cc1cc2c(cc1Sc1ccc(C(=O)O)cc1)C(C)(C)CCC2(C)C [Compound 7, 4-(5,6,7,8-tetrahydro-3,5,5,8,8-pentamethyl-2-Daphthylthio)benzoic acid] |
| 0.042 µM | 85% | Cc1cc2c(cc1Sc1ccc(C(=O)O)cn1)C(C)(C)CCC2(C)C [Compound 13] |
